In brackets after ≈: the same amount, converted by molar mass.
Columns and labels:
[1] = Release of SB-35 dye from silica microparticles (UV/Vis); type: physicochemical; conditions: in cyclohexane, compared with dodecane
Method: 1. The encapsulation efficiency and release rate of the hydrophobic dye were determined by UV/Vis spectroscopy (Cary 50). The encapsulation efficiency was estimated by two methods. The first one was an indirect measurement, which consisted of measuring the U/Vis absorbance of the cyclohexane/Span 80 solutions after the silica particles had been filtered out. The encapsulation efficiency of the dye was calculated by subtracting the dye measured in the outer oil phase from the original dye concentration introduced into the system. A standard calibration curve was generated by adding accurate amounts of dye into the outer oil phase, with identical composition and concentration as the one used for the preparation of the corresponding samples. The second “direct” method consisted of measuring the release of SB-35 from the silica particles in a solvent such as ethanol, cyclohexane or dodecane, until the absorbance was stable. A standard calibration curve was produced by using the identical composition and concentration as the sample release media. (The surfactant content was estimated by the TGA/DTA result). The absorbance was measured at different intervals of time while stirring the product to produce the dye release curve.
The faster release rate observed in the case of the cyclohexane may be explained by the higher lipophilicity of the cyclohexane. […]

[2] = cited from earlier work
[3] = UV/Vis of retinol during release from retinol-doped silica particles; type: physicochemical; conditions: release in anhydrous ethanol

## CCCCNc1ccc(NCCCC)c2c1C(=O)c1ccccc1C2=O [SB-35, Solvent Blue 35]
[1]
  release rate of SB-35 from silica microparticles: faster than in dodecane

## CN(C)C(=O)Nc1ccc(Cl)c(Cl)c1 [diuron, 3-(3,4-Dichlorophenyl)-1,1-dimethylurea]
[2]
  solubility in methanol: 43 mg/mL (≈ 184 mM)

## CC1=C(/C=C/C(C)=C/C=C/C(C)=C/CO)C(C)(C)CCC1 [retinol]
[3]
  retinol UV/Vis band during release: disappeared
